Experimental data from patent publication US11883398B2, “Dipeptidylpeptidase 4 inhibition enhances lymphocyte trafficking, improving both naturally occurring tumor immunity and immunotherapy” (INSTITUT PASTEUR, priority 2015, dated 2024).
One block for each molecule: values may come before it.

Key:
[1] = test system: DPP8/9 over-expressing cells; details: cited from earlier work; for selectivity for DPP4 over DPP8 and 9: Huan et al. 2015; for selectivity towards DPP4: Madar et al. 2006, Gilibili et al. 2015
[2] = molecular target: DPP8 (Homo sapiens, UniProt Q6V1X1); details: Verspohl 2012; Huan et al. 2015; cited from earlier work
[3] = molecular target: DPP9 (Homo sapiens, UniProt Q86TI2); details: Verspohl 2012; Huan et al. 2015; cited from earlier work
[4] = molecular target: T1, mDPP4 (Mus musculus, UniProt P28843); test: DPP4 processing of recombinant chemokines (SELDI-TOF mass spectrometry); assay type: biochemical; details: 10 nM mDPP4, 30 min at 37° C.
T1 construct: purchased Peprotech
Procedure: Recombinant mDPP4, mCXCL10, mCXCL9, mCXCL11, mCCL2, mCCL3, mCCL4, mCCL5, mCXCL12 and mCCL22 were purchased from Peprotech. For surface-enhanced laser desorption/ionization-[…] (SELDI-TOF) mass spectrometry, chemokines were incubated in the presence or absence of 10 nM of mDPP4 for 30 min at 37° C. The digested product was applied onto an H4 protein chip, following the manufacturer's instructions and analyzed using the PROTEINCHIP™ SYSTEMS SERIES 4000 (Ciphergen). Data were analyzed using CIPHERGENEXPRESS Software.

[5] = test system: DASH proteases; details: WO2013/078059; Narra et al. 2007; cited from earlier work
[6] = test system: CXCR3-expressing T cells; test: Model of trafficking into the peritoneal cavity; assay type: in vivo, mouse; details: 1 μg chemokine intraperitoneally
Procedure: WT and Dpp4^−/− mice were intraperitoneally injected with PBS or 1 μg of mCXCL10, mCXCL9 or mCCL5 (all from Peprotech). At the indicated time points, mice were sacrificed and peritoneal cells were collected in 10 mL of PBS. For thioglycollate induced peritonitis mice were intraperitoneally injected with thioglycollate 3% weight/volume, 24 hours before collection of peritoneal cells.
Fluorochrome-conjugated anti-mouse CD3 (clone145-2C11), CD8 (clone 53-6.7), CD4 (clone RM4-5), NK1.1 (clone PK136), CD49b (clone DX5), CD25 (clone PC61), B220 (clone RA3-6B2), Ly6G (clone 1A8), Ly6C (clone AL-21), CD11 b (clone M1/70) Siglec-F (clone E50-2440), MHCII IA-IE (clone M5/114.15.2), CD45.2 (clones 56-0454-82 and 109830), Thy-1.1 (clone HIS51), Thy-1.2 (clone 53-2.1), DPP4 (clone H194-112) and CXCR3 (clone CXCR3-173) were from eBiosciences and BD Biosciences. Fluorochrome conjugated anti-F4/80 (clone CI:A3-1) was from AbDserotec. For exclusion of dead cells, Live/Dead fixable Aqua reagent (Invitrogen) was used. For all staining protocols, cell suspensions were incubated with mouse CD16/CD32 Fc Blocking antibodies (BD Biosciences) prior to antibody. For analysis of peritoneal cavity infiltrates, cells were washed and incubated with a cocktail of fluorochrome-conjugated antibodies. For analysis of tumor infiltrates, B16F10 tumors were collected at the indicated time points and digested in PBS supplemented with 2.7 mg/ml of Collagenase (Roche) and 23U/ml of Deoxyribonuclease I (Invitrogen) for 30 min, 37° C. Digestion was terminated by adding PBS supplemented with 2% FCS and 5 mM EDTA (Gibco). Tumor cell suspensions were obtained after filtration over a 70 μm cell strainer. For determination of cell numbers, the […] COUNTING BEADS reagent (Invitrogen) was used. Flow cytometry was performed using a BD LSRFORTESSA or a BD CANTO cytometer, with DIVA software. Computer analysis was done with FLOWJO (Treestar).

[7] = test system: B16F10 tumors; test: Flow cytometry of leukocytes infiltrating B16F10 tumors; assay type: in vivo, mouse; details: day 7 B16F10 tumors, 12-14 h after injection
Procedure: B16F10 and M04 (Ovalbumin-expressing B16F10 cells, gift from C. Reis e Sousa) tumor cells were cultured in DMEM (Gibco) supplemented with 10% FCS (PAA), 0.1 mM non-essential amino acids, 1 mM sodium pyruvate, 10 mM Hepes, 70 μM beta-mercaptoethanol and 23 μg/ml gentamycin (all from Gibco). CT26 colon carcinoma cells were cultured in RPMI (Gibco) supplemented as described for DMEM. Cells for injections were passaged 1-2 times after thawing, before use. WT and genetically modified mice were subcutaneously injected with 2×10^5 B16 or 5×10^5 CT26 cells in the shaved right flank. When indicated, mice received an intra-tumoral injection of 1 μg of recombinant mCXCL10, 5 μg CpG-A in DOPTAP or vehicle control. For blocking of chemokine and chemokine receptors, WT mice were intraperitoneally injected with 100 μg of hamster a-mCXCR3 (clone CXCR3-173, BioLegend), 100 μg of hamster α-mCCR5 (clone HM-CCR5, BioLegend), 50 μg of rat anti-mCXCL10 (clone 134013, R&D systems) and 20 μg of rat-α-mCXCR4 (clone 2B11/CXCR4, BD Biosciences) or with respective isotype antibodies (hamster IgG (clone HTK888, BioLegend, used as control for mCXCR3 and mCCR5 blockage); rat IgG2a (clone 54447, R&D systems, used as control for mCXCL10 blockade) and rat IgG2b (clone A95-1, BD Biosciences, used as control for mCXCR4 blockade). Intraperitoneal injection was done one day before and 4, 8 and 12 days after tumor cell injection. For CXCL10 neutralization, antibodies were injected on day 2, 5, 8 and 11 after tumor cell injection. For immunotherapy protocols, mice were intraperitoneally injected with 100 μg of mouse α-CTLA-4 (clone 9D9, Bioxcell), 200 μg of PD1 (clone RMP1-14, Bioxcell), a combination of 100 μg of α-CTLA-4+200 μg of a-PD1 or control isotypes (100 μg […] and 200 μg rat IgG2a (clone 2A3), both from Bioxcell) on day 3, 6 and 9 after tumor cell implantation. For adoptive cell transfer experiments, Pmel-1 Thy-1.1^+Thy-1.1^+, Cxcr3^−/− Thy-1.1^+Thy-1.2^+ Pmel-1 or OT1 splenocytes were activated ex-vivo, by incubation with 1 nM of human gp100 (for Pmel-1 cells) or […] (for OT1 cells) peptides for 1h at room temperature with agitation. Splenocytes were then washed and resuspended in R10 supplemented with 30U/mL of recombinant human IL-2. CD8^+ T cells were expanded for 6-7 days before used. For analysis of tumor infiltrates, activated Cxcr3^+/+ Thy-1.1^+Thy-1.1^+ and Cxcr3^−/− Thy-1.1^+Thy-1.2^+ transgenic Pmel-1 CD8^+ T cells were mixed in a 1:1 ratio (total 1×10^6 cells) and injected intravenously into gender matched tumor-bearing mice (3 days after tumor cell injection). For analysis of tumor growth, activated OT1 cells were injected intravenously (1×10^5 cells per mouse) into gender matched tumor-bearing mice, 3 days after tumor cell injection. Tumor height and width were measured with a caliper and tumor volume was calculated (Elliptical volume=width^2×height×0.523). The model of metastatic melanoma was achieved by intravenous injection of 2×10^5 B16 tumor cells. 15 days after tumor cell injection, lungs were dissected, placed in Fekete's solution and metastatic foci were counted. Lungs with more than 100 metastatic nodules were defined as 100.
Fluorochrome-conjugated anti-mouse CD3 (clone145-2C11), CD8 (clone 53-6.7), CD4 (clone RM4-5), NK1.1 (clone PK136), CD49b (clone DX5), CD25 (clone PC61), B220 (clone RA3-6B2), Ly6G (clone 1A8), Ly6C (clone AL-21), CD11 b (clone M1/70) Siglec-F (clone E50-2440), MHCII IA-IE (clone M5/114.15.2), CD45.2 (clones 56-0454-82 and 109830), Thy-1.1 (clone HIS51), Thy-1.2 (clone 53-2.1), DPP4 (clone H194-112) and CXCR3 (clone CXCR3-173) were from eBiosciences and BD Biosciences. Fluorochrome conjugated anti-F4/80 (clone CI:A3-1) was from AbDserotec. For exclusion of dead cells, Live/Dead fixable Aqua reagent (Invitrogen) was used. For all staining protocols, cell suspensions were incubated with mouse CD16/CD32 Fc Blocking antibodies (BD Biosciences) prior to antibody. […]

T1 sequence (P28843 whole entry): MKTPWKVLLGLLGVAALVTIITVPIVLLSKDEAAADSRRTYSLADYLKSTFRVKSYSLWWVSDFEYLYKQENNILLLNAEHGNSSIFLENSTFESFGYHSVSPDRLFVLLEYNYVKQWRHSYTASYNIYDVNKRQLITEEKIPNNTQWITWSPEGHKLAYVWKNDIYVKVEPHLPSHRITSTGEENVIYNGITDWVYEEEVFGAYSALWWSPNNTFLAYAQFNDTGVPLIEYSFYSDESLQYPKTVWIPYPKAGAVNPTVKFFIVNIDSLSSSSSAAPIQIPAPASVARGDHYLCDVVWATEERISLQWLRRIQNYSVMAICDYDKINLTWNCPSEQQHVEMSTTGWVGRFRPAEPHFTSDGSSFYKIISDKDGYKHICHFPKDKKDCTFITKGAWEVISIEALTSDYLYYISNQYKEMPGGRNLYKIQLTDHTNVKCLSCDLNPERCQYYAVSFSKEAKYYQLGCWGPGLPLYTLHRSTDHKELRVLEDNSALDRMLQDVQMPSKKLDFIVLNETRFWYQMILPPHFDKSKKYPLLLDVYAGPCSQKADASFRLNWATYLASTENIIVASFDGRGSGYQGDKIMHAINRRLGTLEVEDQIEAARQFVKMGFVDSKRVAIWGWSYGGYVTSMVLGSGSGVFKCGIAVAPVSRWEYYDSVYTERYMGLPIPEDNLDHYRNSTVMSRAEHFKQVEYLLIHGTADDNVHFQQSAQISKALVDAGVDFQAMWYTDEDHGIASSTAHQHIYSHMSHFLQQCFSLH
Chain of DPP8 (Q6V1X1 whole entry, species assumed): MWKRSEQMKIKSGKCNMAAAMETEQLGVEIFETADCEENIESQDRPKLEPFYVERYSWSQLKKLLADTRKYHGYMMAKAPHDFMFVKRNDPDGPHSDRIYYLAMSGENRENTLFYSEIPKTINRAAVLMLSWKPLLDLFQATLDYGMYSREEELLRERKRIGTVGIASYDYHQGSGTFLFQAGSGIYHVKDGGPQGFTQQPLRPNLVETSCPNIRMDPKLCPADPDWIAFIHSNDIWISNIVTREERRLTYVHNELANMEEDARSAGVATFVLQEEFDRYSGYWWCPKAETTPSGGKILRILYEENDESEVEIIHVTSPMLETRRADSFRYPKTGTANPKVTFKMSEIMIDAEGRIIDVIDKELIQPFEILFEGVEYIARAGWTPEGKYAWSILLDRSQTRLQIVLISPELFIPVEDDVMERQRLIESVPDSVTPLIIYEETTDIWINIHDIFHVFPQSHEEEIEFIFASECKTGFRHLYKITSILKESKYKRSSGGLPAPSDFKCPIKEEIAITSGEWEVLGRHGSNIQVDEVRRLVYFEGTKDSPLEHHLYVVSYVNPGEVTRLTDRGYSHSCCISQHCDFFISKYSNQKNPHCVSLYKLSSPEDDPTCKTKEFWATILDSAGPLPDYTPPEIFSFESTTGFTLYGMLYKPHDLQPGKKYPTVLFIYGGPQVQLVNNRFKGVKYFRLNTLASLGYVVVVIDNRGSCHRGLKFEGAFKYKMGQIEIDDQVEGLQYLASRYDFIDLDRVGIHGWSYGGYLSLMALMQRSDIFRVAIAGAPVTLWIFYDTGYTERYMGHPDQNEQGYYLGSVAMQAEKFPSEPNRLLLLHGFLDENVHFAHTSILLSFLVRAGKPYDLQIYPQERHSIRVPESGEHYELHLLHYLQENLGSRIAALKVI
Chain of DPP9 (Q86TI2 whole entry, species assumed): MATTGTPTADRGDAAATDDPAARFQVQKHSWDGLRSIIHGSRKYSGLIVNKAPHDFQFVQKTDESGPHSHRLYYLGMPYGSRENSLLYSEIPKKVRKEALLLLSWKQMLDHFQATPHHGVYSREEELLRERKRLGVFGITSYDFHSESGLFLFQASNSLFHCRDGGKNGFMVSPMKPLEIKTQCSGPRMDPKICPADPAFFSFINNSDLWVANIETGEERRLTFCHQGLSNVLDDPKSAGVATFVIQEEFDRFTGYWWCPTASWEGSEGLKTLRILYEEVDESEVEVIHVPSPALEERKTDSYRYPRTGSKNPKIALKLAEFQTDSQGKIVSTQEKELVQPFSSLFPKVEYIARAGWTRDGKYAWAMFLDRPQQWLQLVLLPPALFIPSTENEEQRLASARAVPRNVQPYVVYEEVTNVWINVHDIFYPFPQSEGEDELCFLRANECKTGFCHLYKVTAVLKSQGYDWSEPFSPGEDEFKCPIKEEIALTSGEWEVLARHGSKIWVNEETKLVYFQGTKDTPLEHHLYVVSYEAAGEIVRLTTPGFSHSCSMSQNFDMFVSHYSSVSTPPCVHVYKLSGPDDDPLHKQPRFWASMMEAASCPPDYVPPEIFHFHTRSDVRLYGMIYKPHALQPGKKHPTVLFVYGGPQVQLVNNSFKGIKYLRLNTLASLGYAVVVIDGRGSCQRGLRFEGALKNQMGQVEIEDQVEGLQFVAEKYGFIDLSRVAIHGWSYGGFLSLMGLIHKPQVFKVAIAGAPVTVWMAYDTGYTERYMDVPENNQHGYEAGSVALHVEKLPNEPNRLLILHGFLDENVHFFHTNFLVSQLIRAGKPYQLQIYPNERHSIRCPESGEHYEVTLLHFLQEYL

Molecule: N[C@H]1CC(C(=O)N2CCn3c(nnc3C(F)(F)F)C2)=CC[C@@H]1c1cc(F)c(F)cc1F [ABT-341]
- selectivity for DPP4 over DPP8 and 9 [1]: highly-selective inhibitors of DPP4
- selectivity towards DPP4 [1]: highly selective towards DPP4

Molecule: Cn1c(=O)cc(N2CCC[C@@H](N)C2)n(Cc2ccccc2C#N)c1=O [alogliptin]
- effect on DPP8 activity [2]: no effect
- effect on DPP9 activity [3]: no effect

Molecule: CC(C)(C)[C@H](N)C(=O)N1CCC[C@H]1B(O)O [ARI-4175]
- inhibition of DASH proteases [5]: inhibiting a multitude of DASH proteases

Molecule: mCXCL12: recombinant mouse chemokine (Peprotech)
- susceptibility to DPP4 N-terminal truncation [4]: in vitro cleavage

Molecule: C#C[C@H]1CC[C@@H](C#N)N1C(=O)CNC1(C)CCN(c2cc(C(=O)O)ccn2)CC1 [ABT-279]
- selectivity for DPP4 over DPP8 and 9 [1]: highly-selective inhibitors of DPP4
- selectivity towards DPP4 [1]: highly selective towards DPP4

Molecule: COc1cc2c(cc1OC)[C@@H]1C[C@H](N)[C@@H](N3C[C@@H](CF)CC3=O)CN1CC2 [carmegliptin]
- selectivity for DPP4 over DPP8 and 9 [1]: highly-selective inhibitors of DPP4
- selectivity towards DPP4 [1]: highly selective towards DPP4

Molecule: CC(C)[C@H](N)C(=O)N1CCC[C@H]1B(O)O [Val-boroPro]
- inhibition of DASH proteases [5]: inhibiting a multitude of DASH proteases

Molecule: N#C[C@@H]1C[C@H](F)CN1C(=O)[C@@H](N)C(c1ccc(F)cc1)c1ccc(F)cc1 [denagliptin]
- selectivity for DPP4 over DPP8 and 9 [1]: highly-selective inhibitors of DPP4
- selectivity towards DPP4 [1]: highly selective towards DPP4

B1: mCXCL10: recombinant full length mouse CXCL10 (Peprotech) (protein, UniProt P17515 22-98, looked up)
C-X-C motif chemokine 10: IPLARTVRCNCIHIDDGPVRMRAIGKLEIIPASLSCPRVEIIATMKKNDEQRCLNPESKTIKNLMKAFSQKRSKRAP
- infiltration of CXCR3-expressing T cells into the peritoneal cavity in control mice ([6]; control chow): failed to induce significant infiltration of CXCR3-expressing T cells
- susceptibility to DPP4 N-terminal truncation [4]: sensitive to DPP4 N-terminal truncation
- lymphocyte recruitment into the tumor parenchyma after intratumoral mCXCL10 [7]: no increase in lymphocyte migration

Further lines, with some results ahead:

- susceptibility to DPP4 N-terminal truncation [4]: in vitro cleavage
Molecule: mCCL2: recombinant mouse chemokine (Peprotech)

- susceptibility to DPP4 N-terminal truncation [4]: in vitro cleavage
B2: mCCL4: recombinant mouse chemokine (Peprotech) (protein, UniProt P14097 24-92, looked up)
C-C motif chemokine 4: APMGSDPPTSCCFSYTSRQLHRSFVMDYYETSSLCSKPAVVFLTKRGRQICANPSEPWVTEYMSDLELN

- susceptibility to DPP4 N-terminal truncation [4]: insensitive to DPP4-mediated truncation
B3: mCXCL9: recombinant mouse chemokine (Peprotech) (protein, UniProt P18340 22-126, looked up)
C-X-C motif chemokine 9: TLVIRNARCSCISTSRGTIHYKSLKDLKQFAPSPNCNKTEIIATLKNGDQTCLDPDSANVKKLMKEWEKKISQKKKQKRGKKHQKNMKNRKPKTPQSRRRSRKTT
- chemokine-induced leukocyte migration into the peritoneal cavity ([6]; WT and Dpp4-/- mice, 6 h): migration of NK cells into the peritoneal cavity

- susceptibility to DPP4 N-terminal truncation [4]: in vitro cleavage
B4: mCCL3: recombinant mouse chemokine (Peprotech) (protein, UniProt P10855 24-92, looked up)
C-C motif chemokine 3: APYGADTPTACCFSYSRKIPRQFIVDYFETSSLCSQPGVIFLTKRNRQICADSKETWVQEYITDLELNA

- susceptibility to DPP4 N-terminal truncation [4]: in vitro cleavage
B5: mCCL22: recombinant mouse chemokine (Peprotech) (protein, UniProt O88430 25-92, looked up)
C-C motif chemokine 22: GPYGANVEDSICCQDYIRHPLPSRLVKEFFWTSKSCRKPGVVLITVKNRDICADPRQVWVKKLLHKLS
